Source: BindingDB's records for doi:10.1021/ja0466154 (Weizmann Institute of Science, 2004)

Tests used:
Acetylcholinesterase [1] = molecular target: Acetylcholinesterase (Tetronarce californica, UniProt P04058); experiment: Enzyme Inhibition Assay; settings: pH 8; 22 °C
Description: (§1) The cholinesterase assays were performed using colorimetric method reported by Ellman. […] Each inhibitor was evaluated at several concentrations in the range from 1 nM to 20 uM.

Acetylcholinesterase [2] = molecular target: Acetylcholinesterase (Electrophorus electricus, UniProt O42275); experiment: Enzyme Inhibition Assay; settings: pH 8; 22 °C
Sequence of Acetylcholinesterase (Electrophorus electricus, UniProt O42275) (O42275 whole entry): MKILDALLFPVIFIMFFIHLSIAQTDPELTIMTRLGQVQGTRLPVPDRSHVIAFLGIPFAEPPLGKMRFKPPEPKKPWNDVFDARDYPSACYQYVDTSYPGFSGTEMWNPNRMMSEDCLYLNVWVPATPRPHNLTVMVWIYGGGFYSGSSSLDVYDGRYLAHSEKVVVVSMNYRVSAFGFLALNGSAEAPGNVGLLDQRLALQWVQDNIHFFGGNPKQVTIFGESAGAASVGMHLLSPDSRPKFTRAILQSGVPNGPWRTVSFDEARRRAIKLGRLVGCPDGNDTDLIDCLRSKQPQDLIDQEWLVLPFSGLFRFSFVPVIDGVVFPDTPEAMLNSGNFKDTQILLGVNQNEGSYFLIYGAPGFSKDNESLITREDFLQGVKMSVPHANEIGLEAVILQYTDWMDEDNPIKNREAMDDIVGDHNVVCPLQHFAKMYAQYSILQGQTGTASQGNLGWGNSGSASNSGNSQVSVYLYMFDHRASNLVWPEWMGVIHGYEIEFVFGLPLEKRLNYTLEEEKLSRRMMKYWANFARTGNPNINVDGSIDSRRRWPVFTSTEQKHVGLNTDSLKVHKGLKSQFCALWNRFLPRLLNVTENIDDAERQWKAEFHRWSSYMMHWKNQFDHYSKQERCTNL
Description: as §1

Sequence of Acetylcholinesterase (Tetronarce californica, UniProt P04058) (P04058 whole entry): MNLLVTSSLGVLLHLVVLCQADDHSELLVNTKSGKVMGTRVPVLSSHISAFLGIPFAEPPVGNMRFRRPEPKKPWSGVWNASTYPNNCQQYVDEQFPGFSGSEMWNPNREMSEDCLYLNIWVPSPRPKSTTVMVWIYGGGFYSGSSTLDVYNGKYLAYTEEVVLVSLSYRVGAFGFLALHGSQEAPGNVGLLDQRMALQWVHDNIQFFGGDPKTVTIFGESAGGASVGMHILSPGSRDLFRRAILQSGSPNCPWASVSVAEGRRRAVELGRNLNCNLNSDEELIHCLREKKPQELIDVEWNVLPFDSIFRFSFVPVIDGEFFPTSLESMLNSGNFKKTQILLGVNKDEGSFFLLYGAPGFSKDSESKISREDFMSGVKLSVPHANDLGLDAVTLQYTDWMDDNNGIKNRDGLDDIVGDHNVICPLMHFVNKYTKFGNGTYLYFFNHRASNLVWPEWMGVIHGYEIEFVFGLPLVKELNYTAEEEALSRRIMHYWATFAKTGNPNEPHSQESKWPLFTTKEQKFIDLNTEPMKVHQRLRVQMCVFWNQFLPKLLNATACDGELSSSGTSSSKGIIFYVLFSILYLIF

| Structure (SMILES) | IC50 (Acetylcholinesterase [1]) [µM] | IC50 (Acetylcholinesterase [2]) [µM] |
| --- | --- | --- |
| COc1ccc2c3c1O[C@H]1C[C@@H](O)C=C[C@@]31CC[N+](CCCCCCCCN1C(=O)c3ccccc3C1=O)=C2 [(1S,12S,14R)-4-[8-(1,3-dioxo-2,3-dihydro-1H-isoindol-2-yl)octyl]-14-hydroxy-9-methoxy-11-oxa-4-azatetracyclo[8.6.1.0^{1,12}.0^{6,17}]heptadeca-4,6,8,10(17),15-pentaen-4-ium] | 0.004 |  |
| C[N+]1=Cc2ccc(OCCCCCCCCN3C(=O)c4ccccc4C3=O)c3c2[C@@]2(C=C[C@H](O)C[C@@H]2O3)CC1 [(1S,12S,14R)-9-{[8-(1,3-dioxo-2,3-dihydro-1H-isoindol-2-yl)octyl]oxy}-14-hydroxy-4-methyl-11-oxa-4-azatetracyclo[8.6.1.0^{1,12}.0^{6,17}]heptadeca-4,6,8,10(17),15-pentaen-4-ium] | 0.499 | 0.203 |
| COc1ccc2c3c1O[C@H]1C[C@@H](O)C=C[C@@]31CCN(CCCCCCCCN1C(=O)c3ccccc3C1=O)C2 [galanthamine deriv. 3d] | 0.038 | 0.072 |
| COc1ccc2c3c1O[C@H]1C[C@@H](O)C=C[C@@]31CC[N+](C)=C2 [galanthamine deriv. 14] | 0.702 | 0.266 |
